Earlier results in patent publication US6558656B2, “Oral and topical compositions and methods related thereto in the treatment of acne” (priority 2000, dated 2003).
Read-outs that look alike come from different tables or passages of the source. Where no end group is shown, it is not given here.

What was measured:
[1] = tested on: acne
[2] = tested on: BCO, Candida, or Cryptococcus; details: immunosuppressed mice infected with BCO
[3] = tested on: C. albicans, Listeria monocytogenes, Pseudomonas aeruginosa, and Serratia marescens; details: 5-fluorouracil (5FU)- or morphine-immunosuppressed mice, injection
[4] = tested on: Newcastle disease virus; details: mice infected with the Newcastle disease virus
[5] = tested on: Candida albicans; details: mice, injection

## CC(C)(CO)[C@@H](O)C(=O)NCCC(=O)O [Pantothenic acid]
[1]; dosage level of 10 grams per day
  effectiveness in acne: effective

## CC1=C(/C=C/C(C)=C/C=C/C(C)=C/CO)C(C)(C)CCC1 [micellized Vitamin A, Vitamin A]
[1]; in vivo
  toxicity: known toxicity
[1]; very high doses
  effectiveness in acne: moderately effective

## [Zn] [Zinc]
[1]; dosage levels of 100-300 mg per day
  effectiveness in acne: moderately effective

## thymosin α1 (SDAAVDTSSEITTKDLKEKKEVVEEAEN; not fully specified (N-terminus); ends and bridges not checked; UniProt P06454 2-29, looked up) [Tα1, an immunomodulatory peptide of 28 amino acids]
[2]
  survival rate: increased survival rate
[3]
  protection against opportunistic infections: protect
[4]
  amount of interferon (IFN) produced: significant rise
[5]
  resistance to infection with Candida albicans: increased resistance

## CC1=C(/C=C/C(C)=C/C=C/C(C)=C\C(=O)O)C(C)(C)CCC1 [isotretinoin]
[1]; administered orally
  sebum production: decreasing sebum production
[1]; in vivo, po
  side effects: potential to induce sever birth defects
[1]; oral administration
  effectiveness in acne: proven effective in the vast majority of cases
